Assay results reported in paper PMC4603705, “A bioinspired peptide scaffold with high antibiotic activity and low in vivo toxicity” (Scientific Reports, 2015).
Values after ≈ are worked out from the molar mass of the structure shown. “Also recorded” adds a separate entry of the source. Bridge positions count the residues as written; N and C are the ends. Square brackets hold non-standard residues; d marks the D form. Peptide text beside a SMILES is read from it. * marks the point of attachment. Decanoyl = CCCCCCCCCC(=O)*; Nle = CCCC[C@H](N)C(=O)O; Dab = NCC[C@H](N)C(=O)O

Assays:
S. aureus (ATCC 29213) [1] = assay: Flow cytometry (PI membrane permeability, BOX membrane potential), S. aureus; format: cell-based, Staphylococcus aureus; settings: 4 μg/mL
Protocol: (§1) The mechanism of action at the membrane level of our best candidate was studied using flow cytometry. To assess membrane permeability, a propidium iodide (PI) probe was used[43][44]. The fluorescence conferred by this probe is generally associated with cells that have lost their membrane integrity. The effect on membrane potential was evaluated with bis-(1,3-dibutylbarbituric acid) trimethine oxonol (BOX). Membrane depolarization leads to the incorporation of this anionic dye into the cell where it binds to lipid-rich intracellular compounds, resulting in an increase in fluorescence.
(§2) An overnight culture (12 to 16 h) of S. aureus (ATCC 29213) or E. coli (ATCC 25922) in Tryptic Soy Broth (TSB) was grown at 37 °C and 400 μL were added in 50 mL of tryptone water (∼10^7 bacteria/mL). The bacterial suspension was split into aliquots of 4-5 mL and treated with the peptides (at the MIC) for different incubation times at room temperature. Cells were collected by centrifugation (10000 rpm, 20 min) and resuspended in 1 mL of filtered Ringer’s solution.
(§3) A stock solution of propidium iodide (PI, 1 mg/mL, Molecular Probes) and bis-(1,3-dibutylbarbituric acid) trimethine oxonol (BOX, 250 μM, Sigma Aldrich) was prepared in distilled water. Portions (10 μL and 2 μL, respectively) were added to aliquots of cells (100 μL of each sample in 1 mL of Ringer’s solution) to give a final concentration of 10 μg/mL of PI and 0.5 μM for BOX.
(§4) Flow cytometric measurements were performed on a Gallios multi-colour flow cytometer instrument (Beckman Coulter, Inc, Fullerton, CA) set up with the 3-lasers 10 colors standard configuration. Excitation was done using a blue (488 nm) laser. Forward scatter (FS), side scatter (SS), green fluorescence (525/40 nm) from BOX and red fluorescence (620/30 nm) emitted by PI were collected using logarithmic scales. FS was used as the discriminating parameter. The single-cell bacterial population was selected on a forward-side scatter plot. Fluorescence was presented in a dot plot of BOX vs. PI. Three regions were defined on this graph according to the controls: depolarized, permeabilized and non-affected cells. Control cells (non-stained and single stained populations) were used to define these regions. 25,000 cells defined according to their scatter parameters were counted in each sample.

E. coli = test system: E. coli
Protocol: (§5) Strains of E. coli and P. aeruginosa with resistance to quinolones and carbapenems as well as multi-drug-resistant bacteria were tested.
(§6) MICs were measured after 18–20 h of incubation in sterile 96-well plates (Corning Costar 3598 microtiter plates) in Mueller Hinton Broth (MHB) culture medium, (Difco, USA), according to well known in vitro protocols. Bacterial strains in Table 1 were: P. aeruginosa ATTC 9027, E. coli ATTC 8739, S. aureus ATTC 6538, and E. faecalis ATTC 29212. MICs shown in table 4 were performed by Mary Conrad at Cubist Pharmaceuticals (Lexington, MA) in non-binding surface plates.

P. aeruginosa = test system: P. aeruginosa
Protocol: as §5, §6

E. coli (ATCC 25922) [2] = assay: Transmission electron microscopy of treated E. coli; format: cell-based, Escherichia coli; settings: 120 min, 2 μg/mL (Figure 2 legend)
Protocol: (§7) An overnight culture (12 to 16 h) of S. aureus (ATCC 29213) or E. coli (ATCC 25922) in Tryptic Soy Broth (TSB) was grown at 37 °C and 500 μL were added in 50 mL of tryptone water (∼10^8 bacteria/mL). […] Cells were collected by centrifugation (10000 rpm, 20 min).
(§8) Samples were fixed with 2.5% glutaraldehyde in phosphate buffer for 2 h at 4 °C, then washed with the same buffer and post fixed with 1% osmium tetroxide in buffer containing 0.8% potassium ferricyanide at 4 °C. The samples were then dehydrated for 1 hour in acetone and infiltrated in a gradded series of Epon resin (Ted Pella Inc., USA) during 2 days, and finally embedded in fresh Epon resin and polymerised at 60 °C during 48 hours.
(§9) Ultrathin sections were obtained using a Leica Ultracut UCT ultramicrotome (Leica, Vienna) and mounted on Formvar-coated copper grids. Sections were stained with 2% aqueous uranyl acetate and lead citrate and examined in a JEM-1010 electron microscope (Jeol, Japan).

S. aureus (ATCC 29213) [3] = assay: Transmission electron microscopy of treated S. aureus; format: cell-based, Staphylococcus aureus; settings: 4 μg/mL, 120 min
Protocol: as §7, §8, §9

E. coli (ATCC 25922) [4] = assay: Flow cytometry (PI membrane permeability, BOX membrane potential), E. coli; format: cell-based, Escherichia coli; settings: 4 μg/mL
Protocol: as §1, §2, §3, §4

CD-1 mice = assay: In vivo acute toxicity test (up-and-down procedure, OECD 425); settings: for Outcome of mice: CD-1 mice
Protocol: (§10) An in vivo acute toxicity test was performed on CD-1 mice. The lethal dose (LD50) was determined according to the up-and-down procedure. Compound 38 was administered subcutaneously at designated doses (100, 200 and 400 mg/kg).
(§11) The evaluation of acute toxicity was conducted based on OECD 425 (Acute Oral Toxicity – Up-and-Down-Procedure (UDP) March 2006). The procedure was evaluated and accepted by the Ethical Committee of Experimental Animals of the University of Barcelona.
(§12) The main test consists of a single ordered dose progression in which animals are dosed, one at a time, at a minimum of 24-hour intervals.
(§13) Compound 38 was dissolved in PBS (pH 7.4), and administered subcutaneously to CD-1 mice at selected doses (100, 200 and 400 mg/kg). Since 5 reversals occurred in 6 consecutive animals tested between the 200 mg/Kg dose (the 3 animals, survived), and the 400 mg/Kg dose (the 3 animals died) the test was stopped.
(§14) Mortality was monitored for 14 days post-treatment, and LD50 was determined using the maximum likelihood method.

[5] = as above; set-up: species or system mice; settings: mouse, in vivo, sc; CD-1 mice, subcutaneous, up-and-down procedure, maximum likelihood method, 14 days
Protocol: as §10, §11, §12, §13, §14

P. aeruginosa ATTC 9027 = format: cell-based, Pseudomonas aeruginosa; settings: ATTC 9027
Summary of the method: (§15)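 MIC determined by broth microdilution in Mueller Hinton Broth, read after 18–20 h incubation. Part of the MIC testing was run in non-binding surface plates.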

S. aureus (ATCC 29213) [6] = assay: Reduction of viability by plate count, S. aureus; format: cell-based, Staphylococcus aureus; settings: 4 μg/mL
Protocol: as §2

E. coli ATTC 8739 = format: cell-based, Escherichia coli; settings: ATTC 8739
Summary of the method: as §15

E. coli (ATCC 25922) [7] = assay: Reduction of viability by plate count, E. coli; format: cell-based, Escherichia coli; settings: 4 μg/mL
Protocol: as §2

[8] = resistant to nalidixic acid, cotrimoxazole and ampicillin

In the case of `CCCCCCCCCC(=O)N[C@@H](CCN)C(=O)N[C@H](C(=O)N[C@@H](CCN)C(=O)N[C@H]1CSSC[C@H](C(N)=O)NC(=O)[C@H](CCN)NC(=O)[C@H](CCN)NC(=O)[C@H](CCCC)NC(=O)[C@@H](Cc2ccccc2)NC(=O)[C@H](CCN)NC1=O)[C@@H](C)O` [Analog 38, decanoyl -Dab-Thr-Dab-Cys-Dab-Phe-Nle-Dab-Dab-Cys] (Decanoyl-[Dab]T[Dab]C[Dab][dF][Nle][Dab][Dab][dC]-NH2; disulfide 4-10), the “% of stained cells BOX” value (S. aureus (ATCC 29213) [1]; 30 min) is reported as 1%, the “% of stained cells PI” value (S. aureus (ATCC 29213) [1]; 30 min) is reported as 2% and the “% of stained cells BOX” value (S. aureus (ATCC 29213) [1]; 60 min) is reported as 1%. The “% of stained cells PI” value (S. aureus (ATCC 29213) [1]; 60 min) was 3%, the “% of stained cells BOX” value (S. aureus (ATCC 29213) [1]; 120 min) was 4% and the “% of stained cells PI” value (S. aureus (ATCC 29213) [1]; 120 min) was 4%. The “MIC E. coli NDM-1” value (E. coli; highly-resistant, New Delhi metallo-beta-lactamase gene) was 0.5 µg/mL (≈ 0.404 µM), the “MIC E. coli VAL 5” value (E. coli; resistant to nalidixic acid) was 0.5 µg/mL (≈ 0.404 µM) and the “MIC E. coli MAC 21a” value (E. coli; [8]) was 0.5 µg/mL (≈ 0.404 µM). The “MIC E. coli VAL 10” value (E. coli; [8]) was 0.5 µg/mL (≈ 0.404 µM), the “MIC P. aeruginosa 38a” value (P. aeruginosa) was 0.5 µg/mL (≈ 0.404 µM) and the “MIC P. aeruginosa 40b” value (P. aeruginosa) was 4 µg/mL (≈ 3.23 µM). For the same molecule, the “Effect on cell morphology (TEM)” value (E. coli (ATCC 25922) [2]) was “abnormal membrane septation and the formation of blebs on the bacterial surface”, the “Effect on cell morphology (TEM)” value (S. aureus (ATCC 29213) [3]) was “numerous double-layered spherical mesosome-like structures” and the “% of stained cells PI” value (E. coli (ATCC 25922) [4]; 30 min) was 7%. The “% of stained cells BOX” value (E. coli (ATCC 25922) [4]; 30 min, listed as 38) was “around 50%”, the “% of stained cells BOX” value (E. coli (ATCC 25922) [4]; 30 min, listed as #38) was 47% and the “% of stained cells BOX” value (E. coli (ATCC 25922) [4]; 60 min) was 50%. The “% of stained cells PI” value (E. coli (ATCC 25922) [4]; 60 min) was 23%, the “% of stained cells BOX” value (E. coli (ATCC 25922) [4]; 120 min) was 47% and the “% of stained cells PI” value (E. coli (ATCC 25922) [4]; 120 min) was 43%. The Outcome of mice (CD-1 mice; 100 mg/kg subcutaneous) was “survived with no signs of toxicity”, the Outcome of mice (CD-1 mice; 200 mg/kg subcutaneous) was “survived with no signs of toxicity; also recorded: survived” and the “Necropsy of surviving mice” value (CD-1 mice; 200 mg/kg subcutaneous, after 14 days) was “no signs of pathology in vital organs”. The Outcome of mice (CD-1 mice; 400 mg/kg subcutaneous) was “died”, the “LD50 relative to LD50 of PxB” value (CD-1 mice; subcutaneous) was ~5 times and the LD50 at 14 days [5] was 283 mg/kg. The “MIC P. aeruginosa” value (P. aeruginosa ATTC 9027) was 1 µg/mL (≈ 0.808 µM), the “% viability reduction” value (S. aureus (ATCC 29213) [6]; 30 min) was 15% and the “% viability reduction” value (S. aureus (ATCC 29213) [6]; 60 min) was 60%. The “% viability reduction” value (S. aureus (ATCC 29213) [6]; 120 min) was 85%, the “MIC E. coli” value (E. coli ATTC 8739) was 2 µg/mL (≈ 1.62 µM) and the “% viability reduction” value (E. coli (ATCC 25922) [7]; 30 min) was 20%. For the same molecule, the “% viability reduction” value (E. coli (ATCC 25922) [7]; 60 min) was 60% and the “% viability reduction” value (E. coli (ATCC 25922) [7]; 120 min) was 85%.
